# According to patent publication US9777000B2, “Pyrazole derivative” (MOCHIDA PHARMACEUTICAL CO., LTD., priority 2013, dated 2017):
# Target: human PDE10 (Homo sapiens (Human), UniProt Q9Y233)
# Assay: Evaluation of enzyme inhibitory activity: human PDE10 inhibitory effect (IMAP TR-FRET)
# Type: biochemical
# Conditions: cAMP substrate
# Method: (Evaluation of Enzyme Inhibitory Activity: Human PDE10 Inhibitory Effect)
# IMAP TR-FRET Phosphodiersterase Evaluation Assay Kit (Molecular Device) was used for the measurement. Ten μL of a diluted test compound having each concentration and 5 μL of the enzyme PDE10 (BPA Bioscience) that had been diluted to 2 ng/mL with 1×IMAP Reaction Buffer (prepared with 5×included with the kit, 10 mM Tris-HCl, pH=7.2, 10 mM MgCl2, 0.05% NaN3, and 0.1% BSA) containing 0.1% BSA were added to a 384-well plate (Corning). The obtained mixture was then pre-incubated at room temperature for 5 minutes. Thereafter, 5 μL of cAMP substrate solution which was included with the kit and diluted to 400 nM with 1×IMAP Reaction Buffer containing 0.1% BSA, was added to the reaction solution, and the obtained mixture was reacted at room temperature for 60 minutes. Thereafter, 60 μL of an IMAP TR-FRET Binding solution included with the kit was further added to the reaction solution, and the obtained mixture was then left for 3 hours or more. Subsequently, using ARVO SX (PerkinElmer), the fluorescent intensity of Terbium (Emission=490 nm) and TR-FRET (Emission=520 nm) in the reaction solution were measured at an excitation wavelength of 340 nm, so as to calculate the amount of the generated 5′-AMP. The count of a well to which a solvent had been added instead of the test compound was set at 0%, and the count of a well to which the enzyme PDE10 had not been added was set at 100%. Thus, the inhibitory activity of each test compound was calculated.
# The PDE10 inhibitory activity of the test compound was indicated with an IC50 value. […] The test compounds are shown in Table 3 (Table 3-1 and Table 3-2).
# Sequence of human PDE10 (Q9Y233 whole entry): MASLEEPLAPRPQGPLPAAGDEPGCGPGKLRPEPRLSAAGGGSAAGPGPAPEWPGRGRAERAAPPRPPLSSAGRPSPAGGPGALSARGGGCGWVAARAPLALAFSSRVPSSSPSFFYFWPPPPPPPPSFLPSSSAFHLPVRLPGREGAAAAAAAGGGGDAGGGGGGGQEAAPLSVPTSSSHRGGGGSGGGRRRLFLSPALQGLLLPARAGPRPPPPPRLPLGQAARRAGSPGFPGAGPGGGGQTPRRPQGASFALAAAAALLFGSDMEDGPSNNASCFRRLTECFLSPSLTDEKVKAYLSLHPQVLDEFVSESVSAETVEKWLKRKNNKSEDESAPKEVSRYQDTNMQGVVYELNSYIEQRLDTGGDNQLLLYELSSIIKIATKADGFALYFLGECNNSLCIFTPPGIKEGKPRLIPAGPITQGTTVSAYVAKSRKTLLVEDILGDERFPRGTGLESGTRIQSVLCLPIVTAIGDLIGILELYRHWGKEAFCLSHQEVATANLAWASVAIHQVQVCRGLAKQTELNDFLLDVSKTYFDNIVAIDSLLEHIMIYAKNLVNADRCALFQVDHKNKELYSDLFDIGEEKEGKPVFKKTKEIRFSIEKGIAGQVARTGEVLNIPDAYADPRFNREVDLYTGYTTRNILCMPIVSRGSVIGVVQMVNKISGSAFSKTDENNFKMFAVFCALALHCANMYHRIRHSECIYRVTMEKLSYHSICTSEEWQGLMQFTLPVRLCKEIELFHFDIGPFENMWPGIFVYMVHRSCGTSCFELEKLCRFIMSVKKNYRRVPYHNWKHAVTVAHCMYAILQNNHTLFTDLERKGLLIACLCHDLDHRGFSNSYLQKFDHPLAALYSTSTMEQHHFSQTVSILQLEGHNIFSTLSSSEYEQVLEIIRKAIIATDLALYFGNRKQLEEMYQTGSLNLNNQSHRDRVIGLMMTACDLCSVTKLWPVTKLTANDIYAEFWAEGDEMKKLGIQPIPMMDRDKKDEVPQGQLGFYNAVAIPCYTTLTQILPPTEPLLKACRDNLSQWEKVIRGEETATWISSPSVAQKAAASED
row,Structure (SMILES),IC50 [nM]
1,"Cc1cc(C)nc(-c2cnn(C)c2C(=O)Nc2cc3nc(-c4ccccc4)nn3cc2F)n1 [Example 3.44, 4-(4,6-dimethylpyrimidin-2-yl)-N-(6-fluoro-2-phenyl-[1,2,4]triazolo[1,5-a]pyridin-7-yl)-1-methyl-1H-pyrazole-5-carboxamide]",< 5
2,"Cc1cncnc1-c1cnn(C)c1C(=O)Nc1cc2nc(-c3ccccc3)nn2cc1F [Example 3.33, N-(6-fluoro-2-phenyl-[1,2,4]triazolo[1,5-a]pyridin-7-yl)-1-methyl-4-(5-methylpyrimidin-4-yl)-1H-pyrazole-5-carboxamide]",< 5
3,"Cn1ncc(-c2nc(C(F)F)c(Cl)s2)c1C(=O)NC1CCn2cc(-c3ccccc3)nc2C1 (stereo not shown) [Example 2.5, 4-(5-chloro-4-(difluoromethyl)thiazol-2-yl)-1-methyl-N-(2-phenyl-5,6,7,8-tetrahydroimidazo[1,2-a]pyridin-7-yl)-1H-pyrazole-5-carboxamide]",< 5
4,"Cc1cc(-c2cnn(C)c2C(=O)Nc2cc3nc(-c4ccccc4)nn3cc2F)ncn1 [Example 3.39, N-(6-fluoro-2-phenyl-[1,2,4]triazolo[1,5-a]pyridin-7-yl)-1-methyl-4-(6-methylpyrimidin-4-yl)-1H-pyrazole-5-carboxamide]",< 5
5,"Cc1ncnc(-c2cnn(C)c2C(=O)Nc2cc3nc(-c4ccccc4)nn3cc2F)c1C [Example 3.35, 4-(5,6-dimethylpyrimidin-4-yl)-N-(6-fluoro-2-phenyl-[1,2,4]triazolo[1,5-a]pyridin-7-yl)-1-methyl-1H-pyrazole-5-carboxamide]",< 5
6,"Cn1ncc(-c2ncccc2C#N)c1C(=O)Nc1cc2nc(-c3ccccc3)nn2cc1F [Example 3.13, 4-(3-cyanopyridin-2-yl)-N-(6-fluoro-2-phenyl-[1,2,4]triazolo[1,5-a]pyridin-7-yl)-1-methyl-1H-pyrazole-5-carboxamide]",< 5
7,"Cc1nccc(-c2cnn(C)c2C(=O)Nc2cc3nc(-c4ccccc4)nn3cc2F)n1 [Example 3.25, N-(6-fluoro-2-phenyl-[1,2,4]triazolo[1,5-a]pyridin-7-yl)-1-methyl-4-(2-methylpyrimidin-4-yl)-1H-pyrazole-5-carboxamide]",< 5
8,"Cn1ncc(-c2cccnn2)c1C(=O)Nc1cc2nc(-c3ccccc3)nn2cc1F [Example 3.47, N-(6-fluoro-2-phenyl-[1,2,4]triazolo[1,5-a]pyridin-7-yl)-1-methyl-4-(pyridazin-3-yl)-1H-pyrazole-5-carboxamide]",< 5
9,"Cc1cncc(-c2cnn(C)c2C(=O)Nc2cc3nc(-c4ccccc4)nn3cc2F)n1 [Example 3.9, N-(6-fluoro-2-phenyl-[1,2,4]triazolo[1,5-a]pyridin-7-yl)-1-methyl-4-(6-methylpyrazin-2-yl)-1H-pyrazole-5-carboxamide]",< 5
10,"Cc1ccnnc1-c1cnn(C)c1C(=O)Nc1cc2nc(-c3ccccc3)nn2cc1F [Example 3.24, N-(6-fluoro-2-phenyl-[1,2,4]triazolo[1,5-a]pyridin-7-yl)-1-methyl-4-(4-methylpyridazin-3-yl)-1H-pyrazole-5-carboxamide]",< 5
11,"COc1cncnc1-c1cnn(C)c1C(=O)Nc1cc2nc(-c3ccccc3)nn2cc1F [Example 3.34, N-(6-fluoro-2-phenyl-[1,2,4]triazolo[1,5-a]pyridin-7-yl)-4-(5-methoxypyrimidin-4-yl)-1-methyl-1H-pyrazole-5-carboxamide]",< 5
12,"COc1ncc(F)c(-c2cnn(C)c2C(=O)Nc2cc3nc(-c4ccccc4)nn3cc2F)n1 [Example 3.27, 4-(5-fluoro-2-methoxypyrimidin-4-yl)-N-(6-fluoro-2-phenyl-[1,2,4]triazolo[1,5-a]pyridin-7-yl)-1-methyl-1H-pyrazole-5-carboxamide]",< 5
13,"Cn1ncc(-c2nc(C(F)F)c(Cl)s2)c1C(=O)Nc1ccn2cc(-c3ccccc3)nc2c1 [Example 1.7, 4-(5-chloro-4-(difluoromethyl)thiazol-2-yl)-1-methyl-N-(2-phenylimidazo[1,2-a]pyridin-7-yl)-1H-pyrazole-5-carboxamide]",< 5
14,"COc1ccccc1-c1nc2cc(NC(=O)c3c(-c4nc(C(F)F)cs4)cnn3C)ccn2n1 [Example 3.16, 4-(4-(difluoromethyl)thiazol-2-yl)-N-(2-(2-methoxyphenyl)-[1,2,4]triazolo[1,5-a]pyridin-7-yl)-1-methyl-1H-pyrazole-5-carboxamide]",< 5
15,"Cn1ncc(-c2nc(C(F)F)cs2)c1C(=O)Nc1ccn2nc(-c3cccc(F)c3)nc2c1 [Example 3.17, 4-(4-(difluoromethyl)thiazol-2-yl)-N-(2-(3-fluorophenyl)-[1,2,4]triazolo[1,5-a]pyridin-7-yl)-1-methyl-1H-pyrazole-5-carboxamide]",< 5
16,"Cc1ncc(C)c(-c2cnn(C)c2C(=O)Nc2cc3nc(-c4ccccc4)nn3cc2F)n1 [Example 3.22, 4-(2,5-dimethylpyrimidin-4-yl)-N-(6-fluoro-2-phenyl-[1,2,4]triazolo[1,5-a]pyridin-7-yl)-1-methyl-1H-pyrazole-5-carboxamide]",< 5
17,"Cn1ncc(-c2nc(C(F)F)cs2)c1C(=O)NC1CCn2cc(-c3ccccc3)nc2C1 (stereo not shown) [Example 2.4, 4-(4-(difluoromethyl)thiazol-2-yl)-1-methyl-N-(2-phenyl-5,6,7,8-tetrahydroimidazo[1,2-a]pyridin-7-yl)-1H-pyrazole-5-carboxamide]",< 5
18,"Cc1ncc(Cl)c(-c2cnn(C)c2C(=O)Nc2cc3nc(-c4ccccc4)nn3cc2F)n1 [Example 3.41, 4-(5-chloro-2-methylpyrimidin-4-yl)-N-(6-fluoro-2-phenyl-[1,2,4]triazolo[1,5-a]pyridin-7-yl)-1-methyl-1H-pyrazole-5-carboxamide]",< 5

# Results, then the molecule that gave them:
row,IC50 [nM],Structure (SMILES)
1,< 5,"C=Cc1sc(-c2cnn(C)c2C(=O)NC2CCn3nc(-c4ccccc4)nc3C2)nc1C(F)F (stereo not shown) [Example 5.5, 4-(4-(difluoromethyl)-5-vinylthiazol-2-yl)-1-methyl-N-(2-phenyl-5,6,7,8-tetrahydro-[1,2,4]triazolo[1,5-a]pyridin-7-yl)-1H-pyrazole-5-carboxamide]"
2,< 5,"Cc1nc(-c2cnn(C)c2C(=O)NC2CCn3nc(N4CCCC4)nc3C2)sc1C (stereo not shown) [Example 5.45, 4-(4,5-dimethylthiazol-2-yl)-1-methyl-N-(2-(pyrrolidin-1-yl)-5,6,7,8-tetrahydro-[1,2,4]triazolo[1,5-a]pyridin-7-yl)-1H-pyrazole-5-carboxamide]"
3,< 5,"COc1ccnc(-c2cnn(C)c2C(=O)Nc2ccn3nc(N4CCC[C@@H]4C)nc3c2)c1 [Example 4.5, (S)-4-(4-methoxypyridin-2-yl)-1-methyl-N-(2-(2-methylpyrrolidin-1-yl)-[1,2,4]triazolo[1,5-a]pyridin-7-yl)-1H-pyrazole-5-carboxamide]"
4,< 5,"Cc1ncc(C)c(-c2cnn(C)c2C(=O)Nc2cc3nc(N4CCCC4)nn3cc2F)n1 [Example 4.35, 4-(2,5-dimethylpyrimidin-4-yl)-N-(6-fluoro-2-(pyrrolidin-1-yl)-[1,2,4]triazolo[1,5-a]pyridin-7-yl)-1-methyl-1H-pyrazole-5-carboxamide]"
5,< 5,"Cc1ccnc(-c2cnn(C)c2C(=O)Nc2ccn3nc(N4CC[C@H](F)C4)nc3c2)c1 [Example 4.17, (S)-N-(2-(3-fluoropyrrolidin-1-yl)-[1,2,4]triazolo[1,5-a]pyridin-7-yl)-1-methyl-4-(4-methylpyridin-2-yl)-1H-pyrazole-5-carboxamide]"
6,< 5,"Cn1ncc(-c2nc(C(F)(F)F)cs2)c1C(=O)Nc1ccn2nc(N3CC[C@@H](F)C3)nc2c1 [Example 4.13, (R)-N-(2-(3-fluoropyrrolidin-1-yl)-[1,2,4]triazolo[1,5-a]pyridin-7-yl)-1-methyl-4-(4-(trifluoromethyl)thiazol-2-yl)-1H-pyrazole-5-carboxamide]"
7,< 5,"Cc1cc(C)nc(-c2cnn(C)c2C(=O)Nc2ccn3nc(N4CCCC4)nc3c2)c1 [Example 4.32, 4-(4,6-dimethylpyridin-2-yl)-1-methyl-N-(2-(pyrrolidin-1-yl)-[1,2,4]triazolo[1,5-a]pyridin-7-yl)-1H-pyrazole-5-carboxamide]"
8,< 5,"COc1ccnc(-c2cnn(C)c2C(=O)Nc2ccn3nc(N4CC[C@H](F)C4)nc3c2)c1 [Example 4.18, (S)-N-(2-(3-fluoropyrrolidin-1-yl)-[1,2,4]triazolo[1,5-a]pyridin-7-yl)-4-(4-methoxypyridin-2-yl)-1-methyl-1H-pyrazole-5-carboxamide]"
9,< 5,"Cc1cccc(-c2cnn(C)c2C(=O)Nc2ccn3nc(N4CC[C@H](F)C4)nc3c2)n1 [Example 4.21, (S)-N-(2-(3-fluoropyrrolidin-1-yl)-[1,2,4]triazolo[1,5-a]pyridin-7-yl)-1-methyl-4-(6-methylpyridin-2-yl)-1H-pyrazole-5-carboxamide]"
10,< 5,"Cn1ncc(-c2cccc(C(F)(F)F)n2)c1C(=O)Nc1ccn2nc(N3CC[C@H](F)C3)nc2c1 [Example 4.16, (S)-N-(2-(3-fluoropyrrolidin-1-yl)-[1,2,4]triazolo[1,5-a]pyridin-7-yl)-1-methyl-4-(6-(trifluoromethyl)pyridin-2-yl)-1H-pyrazole-5-carboxamide]"
